From patent US9765056B2, “Indole and pyrrole compounds, a process for their preparation and pharmaceutical compositions containing them” (LES LABORATOIRES SERVIER, priority 2013, dated 2017)
Where a name gives a salt, the structure may show the parent alone.

Legend:
[1] = test system: RS4;11 leukaemia tumour line; test: In vitro cytotoxicity, Microculture Tetrazolium Assay (MTT); assay type: cell-based; settings: Homo sapiens; RS4;11 cells, 48 hours exposure
Procedure: The cytotoxicity studies were carried out on the RS4;11 leukaemia tumour line.
The cells are distributed onto microplates and exposed to the test compounds for 48 hours. The cell viability is then quantified by a colorimetric assay, the Microculture Tetrazolium Assay (Cancer Res., 1987, 47, 939-942).

Bcl-2 protein = Bcl-2 protein (histag-Bcl-2, UniProtKB P10415) (Homo sapiens (Human), UniProt P10415); test: Inhibition of Bcl-2 by the fluorescence polarisation technique; assay type: binding; settings: fluorescence polarisation test; method A, or method B where underlined (underlining not visible); read-out: IC50 (nM) Bcl-2 FP
Description: Inhibition of Bcl-2 by the fluorescence polarisation technique

Chain of Bcl-2 protein (P10415 whole entry): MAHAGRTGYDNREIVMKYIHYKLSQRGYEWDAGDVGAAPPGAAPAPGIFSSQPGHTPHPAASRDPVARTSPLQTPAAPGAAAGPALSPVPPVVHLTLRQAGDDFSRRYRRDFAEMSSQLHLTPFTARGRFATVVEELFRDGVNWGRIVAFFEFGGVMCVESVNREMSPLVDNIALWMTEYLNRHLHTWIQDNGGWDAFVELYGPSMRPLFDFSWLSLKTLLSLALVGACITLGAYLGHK

Structure (SMILES) | IC50 (Bcl-2 protein) | IC50 [1]
Cc1cc(C(=O)N(c2ccccc2)c2ccc(O)cc2)cn1-c1cccc(Cl)c1C(=O)N1Cc2ccccc2C[C@H]1CN(C)C [Example 18, 1-(3-Chloro-2-{[(3S)-3-[(dimethylamino)methyl]-3,4-dihydroisoquinolin-2(1H)-yl]carbonyl}phenyl)-N-(4-hydroxyphenyl)-5-methyl-N-phenyl-1H-pyrrole-3-carboxamide] | 44.6 nM | 1130 nM
Cc1cc(C(=O)N(c2ccccc2)c2ccc(O)cc2)cn1-c1cc2c(cc1C(=O)N1Cc3ccccc3C[C@H]1CN1CCOCC1)CCC2 [Example 107, N-(4-Hydroxyphenyl)-5-methyl-1-(6-{[(3S)-3-(morpholin-4-ylmethyl)-3,4-dihydroisoquinolin-2(1H)-yl]carbonyl}-2,3-dihydro-1H-inden-5-yl)-N-phenyl-1H-pyrrole-3-carboxamide hydrochloride] | 44 nM | 150 nM
Cc1cc(C(=O)N(c2ccccc2)c2ccc(O)cc2)cn1-c1ccc(Br)cc1C(=O)N1Cc2ccccc2C[C@H]1CN1CCN(C)CC1 [Example 29, 1-(4-Bromo-2-{[(3S)-3-[(4-methylpiperazin-1-yl)methyl]-3,4-dihydroisoquinolin-2(1H)-yl]carbonyl}phenyl)-N-(4-hydroxyphenyl)-5-methyl-N-phenyl-1H-pyrrole-3-carboxamide] | 44.6 nM | 1010 nM
Cc1ccc(N(C(=O)c2cc(C)n(-c3cc4c(cc3C(=O)N3Cc5ccccc5C[C@H]3CN3CCOCC3)OCO4)c2)c2ccc(O)cc2)cc1 [Example 106, N-(4-Hydroxyphenyl)-5-methyl-N-(4-methylphenyl)-1-(6-{[(3S)-3-(morpholin-4-ylmethyl)-3,4-dihydroisoquinolin-2(1H)-yl]carbonyl}-1,3-benzodioxol-5-yl)-1H-pyrrole-3-carboxamide hydrochloride] | 19.6 nM | 521 nM
Cc1cc(C(=O)N(c2ccccc2)c2ccc(O)cc2)cn1-c1ccc(Cl)cc1C(=O)N1Cc2ccccc2C[C@H]1CN1CCN(C)CC1 [Example 25, 1-(4-Chloro-2-{[(3S)-3-[(4-methylpiperazin-1-yl)methyl]-3,4-dihydroisoquinolin-2(1H)-yl]carbonyl}phenyl)-N-(4-hydroxyphenyl)-5-methyl-N-phenyl-1H-pyrrole-3-carboxamide] | 87.6 nM | 1100 nM
CN1CCN(C[C@@H]2Cc3ccccc3CN2C(=O)c2cc(NC(=O)CSc3ccccc3)ccc2-n2cc(C(=O)N(c3ccccc3)c3ccc(O)cc3)c3ccccc32)CC1 [Example 163, N-(4-Hydroxyphenyl)-1-{2-[(3S)-3-[(4-methylpiperazin-1-yl)methyl]-1,2,3,4-tetrahydroisoquinoline-2-carbonyl]-4-[2-(phenylsulphanyl)acetamido]phenyl}-N-phenyl-1H-indole-3-carboxamide] | 22.8 nM | 292 nM
Cc1cc(C(=O)N(c2ccccc2)c2ccccc2)cn1-c1ccccc1C(=O)N1Cc2ccccc2C[C@H]1CN [Example 5, 1-(2-{[(3S)-3-(Aminomethyl)-3,4-dihydroisoquinolin-2(1H)-yl]-carbonyl}phenyl)-5-methyl-N,N-diphenyl-1H-pyrrole-3-carboxamide trifluoroacetate] | 213 nM | 2590 nM
Cc1cc(C(=O)N(c2ccc(O)cc2)c2ccc3c(c2)CCN3)cn1-c1cc2c(cc1C(=O)N1Cc3ccccc3C[C@H]1CN1CCN(C)CC1)OCO2 [Example 103, N-(2,3-Dihydro-1H-indol-5-yl)-N-(4-hydroxyphenyl)-5-methyl-1-(6-{[(3S)-3-[(4-methylpiperazin-1-yl)methyl]-3,4-dihydroisoquinolin-2(1H)-yl]carbonyl}-1,3-benzodioxol-5-yl)-1H-pyrrole-3-carboxamide hydrochloride] | 17.4 nM | 523 nM
Cc1cc(C(=O)N(c2ccccc2)c2ccc(O)cc2)cn1-c1cc(Br)ccc1C(=O)N1Cc2ccccc2C[C@H]1CN1CCOCC1 [Example 42, 1-(5-Bromo-2-{[(3S)-3-(morpholin-4-ylmethyl)-3,4-dihydroisoquinolin-2(1H)-yl]carbonyl}phenyl)-N-(4-hydroxyphenyl)-5-methyl-N-phenyl-1H-pyrrole-3-carboxamide] | 23.1 nM | 353 nM
COc1ccc(C(=O)N2Cc3ccccc3C[C@H]2CN(C)C)c(-n2cc(C(=O)N(c3ccccc3)c3ccc(O)cc3)c3ccccc32)c1 [Example 175, 1-{2-[(3S)-3-[(Dimethylamino)methyl]-1,2,3,4-tetrahydroisoquinoline-2-carbonyl]-5-methoxyphenyl}-N-(4-hydroxyphenyl)-N-phenyl-1H-indole-3-carboxamide] | 25.1 nM | 460 nM

The next molecules have a lower IC50 (Bcl-2 protein) than those just listed; values first:

IC50 (Bcl-2 protein) | Structure (SMILES) | IC50 [1]
7.8 nM | CN1CCN(C[C@@H]2Cc3ccccc3CN2C(=O)c2cc3c(cc2-n2cc(C(=O)N(c4ccccc4)c4ccc(O)cc4)c4ccccc42)OCO3)CC1 [Example 164, N-(4-Hydroxyphenyl)-1-{6-[(3S)-3-[(4-methylpiperazin-1-yl)methyl]-1,2,3,4-tetrahydroisoquinoline-2-carbonyl]-2H-1,3-benzodioxol-5-yl}-N-phenyl-1H-indole-3-carboxamide dihydrochloride] | 132 nM
6.6 nM | Cc1cc(C(=O)N(c2ccc(O)cc2)c2ccc(F)cc2)cn1-c1cc(Cl)ccc1C(=O)N1Cc2ccccc2C[C@H]1CN1CCN(C)CC1 [Example 66, 1-(5-Chloro-2-{[(3S)-3-[(4-methylpiperazin-1-yl)methyl]-3,4-dihydroisoquinolin-2(1H)-yl]carbonyl}phenyl)-N-(4-fluorophenyl)-N-(4-hydroxyphenyl)-5-methyl-1H-pyrrole-3-carboxamide] | 148 nM
3.4 nM | COc1cc(-n2cc(C(=O)N(c3ccccc3)c3ccc4[nH]ccc4c3)c3ccccc32)c(C(=O)N2Cc3ccccc3C[C@H]2CN2CCN(C)CC2)cc1O [Example 198, 1-{4-Hydroxy-5-methoxy-2-[(3S)-3-[(4-methylpiperazin-1-yl)methyl]-1,2,3,4-tetrahydroisoquinoline-2-carbonyl]phenyl}-N-(1H-indol-5-yl)-N-phenyl-1H-indole-3-carboxamide] | 616 nM
16.8 nM | CN1CCN(C[C@@H]2Cc3ccccc3CN2C(=O)c2cc3c(cc2-n2cc(C(=O)N(c4ccccc4)c4ccc(O)cc4)c4ccccc42)OC[C@H](COCc2ccccc2)O3)CC1 [Example 188, 1-[(2S)-2-[(Benzyloxy)methyl]-7-[(3S)-3-[(4-methylpiperazin-1-yl)-methyl]-1,2,3,4-tetrahydroisoquinoline-2-carbonyl]-2,3-dihydro-1,4-benzodioxin-6-yl]-N-(4-hydroxyphenyl)-N-phenyl-1H-indole-3-carboxamide] | 68 nM
9.2 nM | CN1CCN(C[C@@H]2Cc3ccccc3CN2C(=O)c2cc3c(cc2-n2cc(C(=O)N(c4ccc(O)cc4)c4ccc5c(c4)CCN5)c4ccccc42)OCO3)CC1 [Example 47, N-(2,3-Dihydro-1H-indol-5-yl)-N-(4-hydroxyphenyl)-1-(6-{[(3S)-3-[(4-methylpiperazin-1-yl)methyl]-3,4-dihydroisoquinolin-2(1H)-yl]carbonyl}-1,3-benzodioxol-5-yl)-1H-indole-3-carboxamide] | 50.3 nM
16.2 nM | Cc1cc(C(=O)N(c2ccccc2)c2ccc(O)cc2)cn1-c1cc(Cl)ccc1C(=O)N1Cc2ccccc2C[C@H]1CN(C)C [Example 13, 1-(5-Chloro-2-{[(3S)-3-[(dimethylamino)methyl]-3,4-dihydroisoquinolin-2(1H)-yl]carbonyl}phenyl)-N-(4-hydroxyphenyl)-5-methyl-N-phenyl-1H-pyrrole-3-carboxamide] | 462 nM
4.8 nM | CCn1ccc2cc(N(C(=O)c3cn(-c4cc5c(cc4C(=O)N4Cc6ccccc6C[C@H]4CN4CCN(C)CC4)OCO5)c4ccccc34)c3ccc(O)cc3)ccc21 [Example 99, N-(1-Ethyl-1H-indol-5-yl)-N-(4-hydroxyphenyl)-1-(6-{[(3S)-3-[(4-methylpiperazin-1-yl)methyl]-3,4-dihydroisoquinolin-2(1H)-yl]carbonyl}-1,3-benzodioxol-5-yl)-1H-indole-3-carboxamide] | 41.7 nM
10.2 nM | CN1CCN(C[C@@H]2Cc3ccccc3CN2C(=O)c2ccc(Cl)cc2-n2cc(C(=O)N(c3ccccc3)c3ccc(O)cc3)c3ccccc32)CC1 [Example 159, 1-{5-Chloro-2-[(3S)-3-[(4-methylpiperazin-1-yl)methyl]-1,2,3,4-tetrahydroisoquinoline-2-carbonyl]phenyl}-N-(4-hydroxyphenyl)-N-phenyl-1H-indole-3-carboxamide] | 191 nM
9 nM | Cc1ccc(N(C(=O)c2cc(C)n(-c3cc(Br)ccc3C(=O)N3Cc4ccccc4C[C@H]3CN3CCN(C)CC3)c2)c2ccc(O)cc2)cc1 [Example 53, 1-(5-Bromo-2-{[(3S)-3-[(4-methylpiperazin-1-yl)methyl]-3,4-dihydroisoquinolin-2(1H)-yl]carbonyl}phenyl)-N-(4-hydroxyphenyl)-5-methyl-N-(4-methylphenyl)-1H-pyrrole-3-carboxamide] | 207 nM
5.6 nM | COc1cc(-n2cc(C(=O)N(c3ccccc3)c3ccc(C)cc3)c3ccccc32)c(C(=O)N2Cc3ccccc3C[C@H]2CN2CCN(C)CC2)cc1O [Example 193, 1-{4-Hydroxy-5-methoxy-2-[(3S)-3-[(4-methylpiperazin-1-yl)methyl]-1,2,3,4-tetrahydroisoquinoline-2-carbonyl]phenyl}-N-(4-methylphenyl)-N-phenyl-1H-indole-3-carboxamide] | 499 nM
2.9 nM | Cc1cc(C(=O)N(c2ccc(O)cc2)c2ccc3c(ccn3C)c2)cn1-c1cc(Br)ccc1C(=O)N1Cc2ccccc2C[C@H]1CN1CCN(C)CC1 [Example 70, 1-(5-Bromo-2-{[(3S)-3-[(4-methylpiperazin-1-yl)methyl]-3,4-dihydroisoquinolin-2(1H)-yl]carbonyl}phenyl)-N-(4-hydroxyphenyl)-5-methyl-N-(1-methyl-1H-indol-5-yl)-1H-pyrrole-3-carboxamide hydrochloride] | 63.8 nM
